From publication PMC8401933 (Molecules, 2021)

Assays:
[1] = biological target: T1, FGFR1 (Homo sapiens, UniProt P11362); assay: KINOMEscan binding; conditions: read-out: Percent Control
T1 construct: purchased Eurofins DiscoverX KINOMEscan

[2] = biological target: T2, CTK (Homo sapiens, UniProt P42679); assay: KINOMEscan binding; conditions: read-out: Percent Control
T2 construct: purchased Eurofins DiscoverX KINOMEscan

[3] = biological target: T3, ANKK1 (Homo sapiens, UniProt Q8NFD2); assay: KINOMEscan binding; conditions: read-out: Percent Control
T3 construct: purchased Eurofins DiscoverX KINOMEscan

[4] = biological target: T4, JNK2 (Homo sapiens, UniProt P45984); assay: KINOMEscan binding; conditions: read-out: Percent Control
T4 construct: purchased Eurofins DiscoverX KINOMEscan

[5] = test system: Pparg and Cebpa genes in 3T3-L1 cells; assay: qRT-PCR of adipogenic genes during differentiation; assay type: cell-based; conditions: 3T3-L1 during differentiation; KD025 5 μM, CX-4945 10 μM, Y-27632 10 μM
Protocol: The preadipocyte 3T3-L1 cell line was kindly provided by Dr. Hyun-Sung Park (University of Seoul) and cultured in Dulbecco’s modified Eagle’s medium (DMEM, Sigma-Aldrich) supplied with 10% heat-inactivated newborn calf serum (Invitrogen, CA, USA), 100 units/mL penicillin, and 100 µg/mL streptomycin (Cellgro, VA, USA). The cells were maintained in an incubator at 37 °C and 5% CO2. To initiate differentiation, the cells were incubated for additional days after 100% confluence and then further incubated in a medium containing fetal bovine serum (FBS) and a differentiation cocktail (DMI, 1 μM dexamethasone, 0.5 mM 3-isobutyl-1-methylxanthine, and 5 μg/mL insulin) as previously described. In brief, at day 3, the culture medium was replaced with DMEM/10%FBS containing 5 µg/mL insulin. Then, growth medium was changed every 2 days.
Total RNA was extracted using easy-BLUE (iNtRON Biotechnology, Dajeon, Korea) in accordance with the manufacturer’s protocol. cDNA was synthesized from 2 µg of total RNA using TOPscript^TM Drymix Kit (Enzynomics, Dajeon, Korea). qRT-PCR was performed using TB Green ® Premix Ex Taq^TM II (Tli RNAse H Plus) (TaKaRa, Japan) with Applied Biosystems QuantStudio™ 1 Real-Time PCR System (Thermo Fisher Scientific, Waltham, MA, USA). Gene expression data were normalized based on the use of the same amount of total RNA samples. The relative fold change of gene expression was calculated using the ∆Ct method.

[6] = biological target: T5, FAK (Homo sapiens, UniProt Q05397); assay: KINOMEscan binding; conditions: read-out: Percent Control
T5 construct: purchased Eurofins DiscoverX KINOMEscan

[7] = biological target: T6, PFTK1 (Homo sapiens, UniProt O94921); assay: KINOMEscan binding; conditions: read-out: Percent Control
T6 construct: purchased Eurofins DiscoverX KINOMEscan

[8] = biological target: T7, SNARK (Homo sapiens, UniProt Q9H093); assay: KINOMEscan binding; conditions: read-out: Percent Control
T7 construct: purchased Eurofins DiscoverX KINOMEscan

[9] = biological target: T8, ERBB4 (Homo sapiens, UniProt Q15303); assay: KINOMEscan binding; conditions: read-out: Percent Control
T8 construct: purchased Eurofins DiscoverX KINOMEscan

[10] = biological target: T9, EPHA7 (Homo sapiens, UniProt Q15375); assay: KINOMEscan binding; conditions: read-out: Percent Control
T9 construct: purchased Eurofins DiscoverX KINOMEscan

[11] = biological target: T10, KIT(V559D,V654A) (Homo sapiens, UniProt P10721, V559D/V654A); assay: KINOMEscan binding; conditions: read-out: Percent Control
T10 construct: purchased Eurofins DiscoverX KINOMEscan

[12] = biological target: T11, TAOK3 (Homo sapiens, UniProt Q9H2K8); assay: KINOMEscan binding; conditions: read-out: Percent Control
T11 construct: purchased Eurofins DiscoverX KINOMEscan

[13] = biological target: T12, PAK1 (Homo sapiens, UniProt Q13153); assay: KINOMEscan binding; conditions: read-out: Percent Control
T12 construct: purchased Eurofins DiscoverX KINOMEscan

[14] = biological target: T13, PDGFRA (Homo sapiens, UniProt P16234); assay: KINOMEscan binding; conditions: read-out: Percent Control
T13 construct: purchased Eurofins DiscoverX KINOMEscan
T13 sequence (P16234 24-1089): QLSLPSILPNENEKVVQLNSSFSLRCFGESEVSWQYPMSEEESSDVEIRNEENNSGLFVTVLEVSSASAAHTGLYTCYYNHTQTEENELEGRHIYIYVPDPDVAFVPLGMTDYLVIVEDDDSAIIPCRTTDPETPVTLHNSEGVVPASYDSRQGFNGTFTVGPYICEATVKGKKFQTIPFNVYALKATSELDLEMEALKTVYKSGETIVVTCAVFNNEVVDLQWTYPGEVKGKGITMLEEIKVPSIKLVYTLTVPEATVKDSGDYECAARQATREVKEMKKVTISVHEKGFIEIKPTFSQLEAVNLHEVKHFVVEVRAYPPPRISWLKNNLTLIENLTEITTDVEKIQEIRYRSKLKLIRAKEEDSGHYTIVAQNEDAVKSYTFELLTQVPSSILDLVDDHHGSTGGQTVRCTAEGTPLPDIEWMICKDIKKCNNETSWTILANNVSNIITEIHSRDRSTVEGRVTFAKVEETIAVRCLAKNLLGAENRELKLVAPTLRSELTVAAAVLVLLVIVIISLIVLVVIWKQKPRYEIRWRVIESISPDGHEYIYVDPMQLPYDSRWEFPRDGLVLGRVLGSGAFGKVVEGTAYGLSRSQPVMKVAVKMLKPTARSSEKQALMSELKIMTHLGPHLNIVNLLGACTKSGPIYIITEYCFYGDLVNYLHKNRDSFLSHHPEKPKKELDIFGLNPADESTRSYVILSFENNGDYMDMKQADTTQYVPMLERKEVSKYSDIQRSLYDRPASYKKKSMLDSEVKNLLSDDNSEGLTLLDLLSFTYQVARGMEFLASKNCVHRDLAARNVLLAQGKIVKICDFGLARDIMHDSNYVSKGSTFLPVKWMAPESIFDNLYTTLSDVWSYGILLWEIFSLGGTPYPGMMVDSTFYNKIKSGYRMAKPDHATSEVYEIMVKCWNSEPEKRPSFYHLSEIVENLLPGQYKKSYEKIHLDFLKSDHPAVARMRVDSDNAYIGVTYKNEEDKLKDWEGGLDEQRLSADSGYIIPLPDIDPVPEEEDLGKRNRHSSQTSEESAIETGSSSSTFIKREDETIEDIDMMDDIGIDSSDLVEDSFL

[15] = biological target: T14, ULK1 (Homo sapiens, UniProt O75385); assay: KINOMEscan binding; conditions: read-out: Percent Control
T14 construct: purchased Eurofins DiscoverX KINOMEscan
T14 sequence (O75385 whole entry): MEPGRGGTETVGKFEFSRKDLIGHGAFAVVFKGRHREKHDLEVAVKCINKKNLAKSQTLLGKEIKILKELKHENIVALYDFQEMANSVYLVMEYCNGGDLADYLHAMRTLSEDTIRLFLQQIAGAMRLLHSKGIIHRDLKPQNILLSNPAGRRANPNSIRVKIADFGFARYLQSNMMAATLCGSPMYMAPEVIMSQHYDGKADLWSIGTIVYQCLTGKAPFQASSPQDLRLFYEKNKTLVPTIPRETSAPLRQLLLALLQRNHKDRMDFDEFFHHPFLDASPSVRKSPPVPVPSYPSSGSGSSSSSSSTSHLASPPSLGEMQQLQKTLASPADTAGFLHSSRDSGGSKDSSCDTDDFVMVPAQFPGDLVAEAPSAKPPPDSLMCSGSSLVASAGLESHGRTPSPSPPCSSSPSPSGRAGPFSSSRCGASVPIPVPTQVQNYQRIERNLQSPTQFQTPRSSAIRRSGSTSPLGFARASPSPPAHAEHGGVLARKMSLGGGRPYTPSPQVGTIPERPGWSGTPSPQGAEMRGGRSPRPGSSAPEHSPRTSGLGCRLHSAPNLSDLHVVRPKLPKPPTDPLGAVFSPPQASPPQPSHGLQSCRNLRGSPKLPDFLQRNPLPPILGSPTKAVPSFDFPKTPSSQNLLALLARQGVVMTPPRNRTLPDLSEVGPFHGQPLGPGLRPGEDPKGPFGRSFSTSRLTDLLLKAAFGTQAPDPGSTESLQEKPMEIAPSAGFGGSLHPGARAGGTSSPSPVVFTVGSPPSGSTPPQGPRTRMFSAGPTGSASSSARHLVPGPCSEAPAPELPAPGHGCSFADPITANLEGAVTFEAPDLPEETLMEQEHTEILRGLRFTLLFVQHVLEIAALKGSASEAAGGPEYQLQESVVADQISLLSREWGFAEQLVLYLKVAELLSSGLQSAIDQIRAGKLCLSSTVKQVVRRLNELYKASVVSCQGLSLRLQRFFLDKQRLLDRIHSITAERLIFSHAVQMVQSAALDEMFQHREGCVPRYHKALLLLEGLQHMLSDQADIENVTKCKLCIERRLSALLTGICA

[16] = biological target: T15, TSSK3 (Homo sapiens, UniProt Q96PN8); assay: KINOMEscan binding; conditions: read-out: Percent Control
T15 construct: purchased Eurofins DiscoverX KINOMEscan

[17] = biological target: T16, HIPK2 (Homo sapiens, UniProt Q9H2X6); assay: KINOMEscan binding; conditions: read-out: Percent Control
T16 construct: purchased Eurofins DiscoverX KINOMEscan

[18] = biological target: T17, MAP3K2 (Homo sapiens, UniProt Q9Y2U5); assay: KINOMEscan binding; conditions: read-out: Percent Control
T17 construct: purchased Eurofins DiscoverX KINOMEscan

[19] = biological target: T18, ABL1(F317L)-nonphosphorylated (Homo sapiens, UniProt P00519, F317L); assay: KINOMEscan binding; conditions: read-out: Percent Control
T18 construct: purchased Eurofins DiscoverX KINOMEscan

[20] = biological target: T19, TYK2(JH2domain-pseudokinase) (Homo sapiens, UniProt P29597); assay: KINOMEscan binding; conditions: read-out: Percent Control
T19 construct: TYK2(JH2domain-pseudokinase); purchased Eurofins DiscoverX KINOMEscan
T19 sequence (P29597 556-888 limits assumed): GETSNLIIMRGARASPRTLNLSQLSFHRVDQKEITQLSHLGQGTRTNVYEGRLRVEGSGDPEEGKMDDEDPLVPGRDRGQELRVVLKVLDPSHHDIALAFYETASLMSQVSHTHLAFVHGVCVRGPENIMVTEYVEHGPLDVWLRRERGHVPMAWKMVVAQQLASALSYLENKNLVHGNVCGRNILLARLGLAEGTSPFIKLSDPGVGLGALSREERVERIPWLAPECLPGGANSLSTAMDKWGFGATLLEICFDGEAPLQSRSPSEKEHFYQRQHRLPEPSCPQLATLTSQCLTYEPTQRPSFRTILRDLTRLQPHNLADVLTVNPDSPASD

[21] = biological target: T20, CSNK1G3 (Homo sapiens, UniProt Q9Y6M4); assay: KINOMEscan binding; conditions: read-out: Percent Control
T20 construct: purchased Eurofins DiscoverX KINOMEscan
T20 sequence (Q9Y6M4 whole entry): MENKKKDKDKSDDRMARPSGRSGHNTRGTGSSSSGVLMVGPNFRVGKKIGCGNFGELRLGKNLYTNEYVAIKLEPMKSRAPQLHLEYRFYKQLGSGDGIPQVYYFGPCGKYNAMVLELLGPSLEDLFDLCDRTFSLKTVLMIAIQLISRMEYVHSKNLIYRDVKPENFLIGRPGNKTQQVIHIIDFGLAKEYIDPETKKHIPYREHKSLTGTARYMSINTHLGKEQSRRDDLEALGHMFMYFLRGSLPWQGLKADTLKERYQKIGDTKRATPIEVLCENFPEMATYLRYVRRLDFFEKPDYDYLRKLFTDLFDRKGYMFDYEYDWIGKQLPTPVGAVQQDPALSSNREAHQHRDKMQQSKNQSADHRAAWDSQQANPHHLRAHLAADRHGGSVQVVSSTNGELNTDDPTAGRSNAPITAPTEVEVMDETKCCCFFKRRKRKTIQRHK

[22] = biological target: T21, CDK5 (Homo sapiens, UniProt Q00535); assay: KINOMEscan binding; conditions: read-out: Percent Control
T21 construct: purchased Eurofins DiscoverX KINOMEscan

[23] = biological target: T22, TSSK1B (Homo sapiens, UniProt Q9BXA7); assay: KINOMEscan binding; conditions: read-out: Percent Control
T22 construct: purchased Eurofins DiscoverX KINOMEscan

[24] = biological target: T23, PAK6 (Homo sapiens, UniProt Q9NQU5); assay: KINOMEscan binding; conditions: read-out: Percent Control
T23 construct: purchased Eurofins DiscoverX KINOMEscan
T23 sequence (Q9NQU5 whole entry): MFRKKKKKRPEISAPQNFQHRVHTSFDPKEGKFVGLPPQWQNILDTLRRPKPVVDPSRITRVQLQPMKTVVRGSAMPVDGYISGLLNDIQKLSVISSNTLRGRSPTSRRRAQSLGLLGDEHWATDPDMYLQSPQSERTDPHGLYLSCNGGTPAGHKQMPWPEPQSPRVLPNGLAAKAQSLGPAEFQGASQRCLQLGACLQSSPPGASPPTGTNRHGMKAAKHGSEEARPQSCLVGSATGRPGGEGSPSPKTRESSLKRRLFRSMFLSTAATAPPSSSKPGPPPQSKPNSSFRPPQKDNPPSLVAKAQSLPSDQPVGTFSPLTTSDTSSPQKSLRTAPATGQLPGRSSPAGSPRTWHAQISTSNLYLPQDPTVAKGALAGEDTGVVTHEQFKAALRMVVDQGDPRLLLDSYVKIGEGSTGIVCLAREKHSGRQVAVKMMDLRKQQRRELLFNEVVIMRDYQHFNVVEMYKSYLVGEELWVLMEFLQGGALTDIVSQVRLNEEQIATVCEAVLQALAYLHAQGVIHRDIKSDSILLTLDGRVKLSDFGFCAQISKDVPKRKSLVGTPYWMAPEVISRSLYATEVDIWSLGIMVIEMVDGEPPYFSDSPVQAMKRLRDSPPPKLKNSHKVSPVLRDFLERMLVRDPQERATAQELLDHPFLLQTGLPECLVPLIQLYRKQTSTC

[25] = biological target: T24, HIPK1 (Homo sapiens, UniProt Q86Z02); assay: KINOMEscan binding; conditions: read-out: Percent Control
T24 construct: purchased Eurofins DiscoverX KINOMEscan

[26] = biological target: T25, PAK2 (Homo sapiens, UniProt Q13177); assay: KINOMEscan binding; conditions: read-out: Percent Control
T25 construct: purchased Eurofins DiscoverX KINOMEscan

[27] = biological target: T26, RIOK2 (Homo sapiens, UniProt Q9BVS4); assay: KINOMEscan binding; conditions: read-out: Percent Control
T26 construct: purchased Eurofins DiscoverX KINOMEscan

[28] = biological target: T27, EPHB4 (Homo sapiens, UniProt P54760); assay: KINOMEscan binding; conditions: read-out: Percent Control
T27 construct: purchased Eurofins DiscoverX KINOMEscan
T27 sequence (P54760 16-987): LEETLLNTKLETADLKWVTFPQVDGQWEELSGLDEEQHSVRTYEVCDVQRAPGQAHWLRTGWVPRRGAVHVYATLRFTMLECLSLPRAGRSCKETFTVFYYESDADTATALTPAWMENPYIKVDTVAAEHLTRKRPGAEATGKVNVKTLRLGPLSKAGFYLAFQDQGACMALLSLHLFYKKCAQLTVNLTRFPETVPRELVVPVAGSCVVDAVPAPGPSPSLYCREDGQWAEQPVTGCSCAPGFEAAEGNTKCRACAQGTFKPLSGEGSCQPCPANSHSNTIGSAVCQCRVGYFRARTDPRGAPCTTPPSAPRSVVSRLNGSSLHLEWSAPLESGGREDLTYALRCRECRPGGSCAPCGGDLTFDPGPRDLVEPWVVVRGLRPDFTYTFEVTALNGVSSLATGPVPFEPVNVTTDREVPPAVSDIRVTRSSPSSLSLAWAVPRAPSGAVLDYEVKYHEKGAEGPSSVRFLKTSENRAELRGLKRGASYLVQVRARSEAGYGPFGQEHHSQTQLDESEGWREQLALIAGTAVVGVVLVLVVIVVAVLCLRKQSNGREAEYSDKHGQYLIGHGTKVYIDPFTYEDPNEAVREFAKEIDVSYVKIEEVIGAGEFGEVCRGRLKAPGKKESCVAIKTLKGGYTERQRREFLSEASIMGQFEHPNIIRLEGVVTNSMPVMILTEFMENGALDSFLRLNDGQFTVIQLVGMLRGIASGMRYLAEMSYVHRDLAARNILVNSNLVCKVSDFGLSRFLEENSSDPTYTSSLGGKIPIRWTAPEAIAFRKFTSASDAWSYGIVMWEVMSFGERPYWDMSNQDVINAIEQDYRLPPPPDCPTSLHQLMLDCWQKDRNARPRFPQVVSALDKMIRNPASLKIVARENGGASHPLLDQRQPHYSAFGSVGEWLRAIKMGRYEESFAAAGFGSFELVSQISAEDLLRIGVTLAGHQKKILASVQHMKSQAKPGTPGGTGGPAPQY

[29] = test system: ROCK2; set-up: method as in PMID 18832915; conditions: cited from earlier work
[30] = biological target: T28, FGFR3(G697C) (Homo sapiens, UniProt P22607, G697C); assay: KINOMEscan binding; conditions: read-out: Percent Control
T28 construct: purchased Eurofins DiscoverX KINOMEscan

[31] = biological target: T29, RIPK4 (Homo sapiens, UniProt P57078); assay: KINOMEscan binding; conditions: read-out: Percent Control
T29 construct: purchased Eurofins DiscoverX KINOMEscan

[32] = biological target: T30, HPK1 (Homo sapiens, UniProt Q92918); assay: KINOMEscan binding; conditions: read-out: Percent Control
T30 construct: purchased Eurofins DiscoverX KINOMEscan

[33] = biological target: T31, AXL (Homo sapiens, UniProt P30530); assay: KINOMEscan binding; conditions: read-out: Percent Control
T31 construct: purchased Eurofins DiscoverX KINOMEscan

[34] = biological target: T32, p38-gamma (Homo sapiens, UniProt P53778); assay: KINOMEscan binding; conditions: read-out: Percent Control
T32 construct: purchased Eurofins DiscoverX KINOMEscan

T2 sequence (P42679 whole entry): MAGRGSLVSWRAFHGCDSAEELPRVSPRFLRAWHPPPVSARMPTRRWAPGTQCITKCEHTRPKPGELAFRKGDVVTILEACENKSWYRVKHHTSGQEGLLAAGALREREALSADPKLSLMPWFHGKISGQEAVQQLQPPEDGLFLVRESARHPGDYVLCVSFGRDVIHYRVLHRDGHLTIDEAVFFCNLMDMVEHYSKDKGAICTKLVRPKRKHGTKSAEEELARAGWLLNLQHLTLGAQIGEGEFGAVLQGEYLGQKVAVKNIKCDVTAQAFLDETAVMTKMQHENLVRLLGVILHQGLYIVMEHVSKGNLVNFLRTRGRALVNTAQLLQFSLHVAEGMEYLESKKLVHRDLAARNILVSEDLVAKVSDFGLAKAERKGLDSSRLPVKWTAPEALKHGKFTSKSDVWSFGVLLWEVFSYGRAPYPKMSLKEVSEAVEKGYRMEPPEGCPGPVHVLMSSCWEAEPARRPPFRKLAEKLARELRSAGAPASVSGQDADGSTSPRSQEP

CC(C)NC(=O)COc1cccc(-c2nc(Nc3ccc4[nH]ncc4c3)c3ccccc3n2)c1 [KD025, 2-(3-(4-((1H-indazol-5-yl)amino)quinazolin-2-yl)phenoxy)-N-isopropylacetamide]
remaining binding at 10 µM [1]: 95% | remaining binding at 10 µM [2]: 83% | remaining binding at 10 µM [3]: 72% | remaining binding at 10 µM [4]: 66% | expression of Pparg and Cebpa genes [5]: suppressed | remaining binding at 10 µM [6]: 92% | remaining binding at 10 µM [7]: 77% | remaining binding at 10 µM [8]: 71% | remaining binding at 10 µM [9]: 57% | remaining binding at 10 µM [10]: 100% | remaining binding at 10 µM [11]: 92% | remaining binding at 10 µM [12]: 89% | remaining binding at 10 µM [13]: 56% | remaining binding at 10 µM [14]: 80% | remaining binding at 10 µM [15]: 100% | remaining binding at 10 µM [16]: 77% | remaining binding at 10 µM [17]: 100% | remaining binding at 10 µM [18]: 95% | remaining binding at 10 µM [19]: 96% | remaining binding at 10 µM [20]: 81% | remaining binding at 10 µM [21]: 100% | remaining binding at 10 µM [22]: 83% | remaining binding at 10 µM [23]: 76% | remaining binding at 10 µM [24]: 100% | remaining binding at 10 µM [25]: 58% | remaining binding at 10 µM [26]: 79% | remaining binding at 10 µM [27]: 60% | remaining binding at 10 µM [28]: 95% | IC50 [29]: […] | remaining binding at 10 µM [30]: 77% | remaining binding at 10 µM [31]: 100% | remaining binding at 10 µM [32]: 76% | remaining binding at 10 µM [33]: 66% | remaining binding at 10 µM [34]: 60%
